Here are results for five molecules from patent US20250344697A1, “ENANTIOMERICALLY ENRICHED […] THE CONTROL OF RESISTANT PHYTOPATHOGENIC FUNGI” (SYNGENTA CROP PROTECTION AG, priority 2022, published 2025).

What all share (assay): in vitro antifungal test, Z. tritici spore suspension in PDB
Type in all cases: cell-based

The test system of test [1] is K9020 Zymoseptoria tritici CYP51 L50S V136A I381V Y461S S524T. The note with it: isolate K9020; for EC50 (ppm): growth at 3 days post exposure, average of two replicates. The procedure: (§1) A panel of 16 Zymoseptoria tritici isolates was subjected to in vitro antifungal tests. Spore suspensions of Z. tritici isolates were prepared in potato dextrose broth (PDB) and exposed to defined concentration ranges of the inhibitors (20ppm starting concentration, dilution steps of 3). A sensitive wild-type isolate was used together with a panel of strains containing variants of the Z. tritici CYP51 gene conferring resistance to DMI fungicides. The DMI-resistant isolates were isolated from wheat in the UK, Ireland, Germany and Russia in 2020. Determination of CYP51 gene variants was achieved using targeted gene sequencing. The half maximal effective concentration (EC50) of the inhibitors were calculated based on growth responses of Z. tritici at 3 days post exposure to the different concentrations of the […] using a linear regression. The Tables A and B show an average of EC50 values in ppm from two replicates, as well as M=(EC50 (enantiomer)/EC50 (racemate))−0.5.

Test [2] relates to K9029 Zymoseptoria tritici CYP51 L50S I381V YG459 N513K. The note with it: for EC50 (ppm): growth at 3 days post exposure, average of two replicates; for M = (EC50 (enantiomer)/EC50 (racemate)) − 0.5: (−)-enantiomer vs racemate. The procedure:
as §1

Test [3] relates to K9026 Zymoseptoria tritici CYP51 L50S S188N A379G I381V YG459 N513K. The note with it: for EC50 (ppm): growth at 3 days post exposure, average of two replicates; for M = (EC50 (enantiomer)/EC50 (racemate)) − 0.5: (−)-enantiomer vs racemate. The procedure:
as §1

The subject of test [4] is K9023 Zymoseptoria tritici CYP51 L50S V136C S188N A379G I381V YG459 S524T. The note with it: for EC50 (ppm): growth at 3 days post exposure, average of two replicates; for M = (EC50 (enantiomer)/EC50 (racemate)) − 0.5: (−)-enantiomer vs racemate. How it is done:
as §1

For test [5], the system named is K9022 Zymoseptoria tritici CYP51 L50S V136A I381V Y461S S524T. The note with it: isolate K9022; for EC50 (ppm): growth at 3 days post exposure, average of two replicates. The procedure: as §1
Test [6] concerns K9032 Zymoseptoria tritici CYP51 L50S D134G V136A I381V Y461H S524T. The note with it: for EC50 (ppm): growth at 3 days post exposure, average of two replicates; for M = (EC50 (enantiomer)/EC50 (racemate)) − 0.5: (−)-enantiomer vs racemate. The procedure:
as §1

The subject of test [7] is K5544 Zymoseptoria tritici (WT). The note with it: isolate K5544 (WT); for EC50 (ppm): growth at 3 days post exposure, average of two replicates. The procedure:
as §1

The subject of test [8] is K9021 Zymoseptoria tritici CYP51 L50S V136A I381V Y461S S524T. The note with it: isolate K9021; for EC50 (ppm): growth at 3 days post exposure, average of two replicates. The procedure:
as §1

Where [9] appears, read: (−)-enantiomer vs racemate, below 0 = enantiomer outperforms racemate.

With `COC(=O)C(O)(Cn1cncn1)c1ccc(Oc2ccc(Cl)cc2)cc1Cl` (racemic) [Racemate Compound I-1], the “EC50 (ppm)” value is reported as 0.03 ppm in test [1]; 0.8 ppm in test [2] (isolate K9029, 1st listed row); 3 ppm in test [2] (isolate K9029, 2nd listed row); 10 ppm in test [2] (isolate K9029, 3rd listed row); 10 ppm in test [3] (isolate K9026, 1st listed row); 0.1 ppm in test [3] (isolate K9026, 2nd listed row). Besides, the “EC50 (ppm)” value in test [3] (isolate K9026, 3rd listed row) was determined as 0.1 ppm; in test [4] (isolate K9023, 2nd listed row), 0.2 ppm; in test [4] (isolate K9023, 3rd listed row), 0.4 ppm; in test [4] (isolate K9023), 0.5 ppm; in test [5], 0.6 ppm; in test [6] (isolate K9032, 1st listed row) it was 0.2 ppm. The “EC50 (ppm)” value in test [6] (isolate K9032, 2nd listed row) was found to be 0.1 ppm; in test [6] (isolate K9032, 3rd listed row), 0.1 ppm; in test [7], 0.03 ppm; in test [8], 0.09 ppm.

Turning to `COC(=O)C(O)(Cn1cncn1)c1ccc(Oc2ccc(Cl)cc2)cc1C(F)(F)F` (racemic) [Racemate Compound I-2], the “EC50 (ppm)” value amounted to 0.03 ppm in test [1]; 0.8 ppm in test [2] (isolate K9029, 1st listed row); 3 ppm in test [2] (isolate K9029, 2nd listed row); 10 ppm in test [2] (isolate K9029, 3rd listed row); 6 ppm in test [3] (isolate K9026, 1st listed row); 0.07 ppm in test [3] (isolate K9026, 2nd listed row). Besides, the “EC50 (ppm)” value is on record as 0.07 ppm in test [3] (isolate K9026, 3rd listed row); 0.1 ppm in test [4] (isolate K9023, 2nd listed row); 0.3 ppm in test [4] (isolate K9023, 3rd listed row); 0.3 ppm in test [4] (isolate K9023); 0.7 ppm in test [5]; 0.2 ppm in test [6] (isolate K9032, 1st listed row). Further, the “EC50 (ppm)” value is 0.1 ppm in test [6] (isolate K9032, 2nd listed row); 0.1 ppm in test [6] (isolate K9032, 3rd listed row); 0.03 ppm in test [7]; 0.09 ppm in test [8].

In the case of `COC(=O)C(O)(Cn1cncn1)c1ccc(Oc2ccc(Cl)cc2)cc1Cl` (single isomer, unassigned; (+)) [(+)-enantiomer of Compound I-1, (+)Methyl 2-[2-chloro-4-(4-chlorophenoxy)phenyl]-2-hydroxy-3-(1,2,4-triazol-1-yl)propanoate], the “EC50 (ppm)” value in test [1] worked out at 2 ppm; in test [2] (isolate K9029, 1st listed row) it was 20 ppm; in test [2] (isolate K9029, 2nd listed row) it was 20 ppm; in test [2] (isolate K9029, 3rd listed row) it was 20 ppm; in test [3] (isolate K9026, 1st listed row), 20 ppm; in test [3] (isolate K9026, 2nd listed row), 5 ppm. In addition, the “EC50 (ppm)” value in test [3] (isolate K9026, 3rd listed row) is given as 3 ppm; in test [4] (isolate K9023, 2nd listed row) it was 9 ppm; in test [4] (isolate K9023, 3rd listed row), 19 ppm; in test [4] (isolate K9023), 20 ppm; in test [5], 20 ppm; in test [6] (isolate K9032, 1st listed row) it was 12 ppm. For the same molecule, the “EC50 (ppm)” value in test [6] (isolate K9032, 2nd listed row) is reported as 7 ppm; in test [6] (isolate K9032, 3rd listed row), 8 ppm; in test [7], 1 ppm; in test [8], 5 ppm.

As to `COC(=O)C(O)(Cn1cncn1)c1ccc(Oc2ccc(Cl)cc2)cc1C(F)(F)F` (single isomer, unassigned; (+)) [(+)-enantiomer of Compound I-2], the “EC50 (ppm)” value in test [1] is 1 ppm; in test [2] (isolate K9029, 1st listed row) it was >20 ppm; in test [2] (isolate K9029, 2nd listed row), >20 ppm; in test [2] (isolate K9029, 3rd listed row), >20 ppm; in test [3] (isolate K9026, 1st listed row), >20 ppm; in test [3] (isolate K9026, 2nd listed row), 3 ppm. Further, the “EC50 (ppm)” value is given as 2 ppm in test [3] (isolate K9026, 3rd listed row); 6 ppm in test [4] (isolate K9023, 2nd listed row); 9 ppm in test [4] (isolate K9023, 3rd listed row); 9 ppm in test [4] (isolate K9023); >20 ppm in test [5]; 7 ppm in test [6] (isolate K9032, 1st listed row). Moreover, the “EC50 (ppm)” value stood at 4 ppm in test [6] (isolate K9032, 2nd listed row); 4 ppm in test [6] (isolate K9032, 3rd listed row); 0.5 ppm in test [7]; 3 ppm in test [8].

For `COC(=O)C(O)(Cn1cncn1)c1ccc(Oc2ccc(Cl)cc2)cc1Cl` (single isomer, unassigned; (-)) [(−)-enantiomer of Compound I-1, (−)-Methyl 2-[2-chloro-4-(4-chlorophenoxy)phenyl]-2-hydroxy-3-(1,2,4-triazol-1-yl)propanoate], the “M = (EC50 (enantiomer)/EC50 (racemate)) − 0.5” value is listed as −0.17 in test [1] (setting [9]); −0.13 in test [2] (isolate K9029, 1st listed row); −0.23 in test [2] (isolate K9029, 2nd listed row); −0.20 in test [2] (isolate K9029, 3rd listed row); −0.10 in test [3] (isolate K9026, 1st listed row); 0.00 in test [3] (isolate K9026, 2nd listed row). For the same molecule, the “M = (EC50 (enantiomer)/EC50 (racemate)) − 0.5” value in test [3] (isolate K9026, 3rd listed row) stood at 0.00; in test [4] (isolate K9023, 2nd listed row), 0.00; in test [4] (isolate K9023, 3rd listed row), 0.00; in test [4] (isolate K9023), 0.10; in test [5] (setting [9]), 0.00; in test [6] (isolate K9032, 1st listed row) it was 0.00. For the same molecule, the “M = (EC50 (enantiomer)/EC50 (racemate)) − 0.5” value is 0.10 in test [6] (isolate K9032, 2nd listed row); 0.10 in test [6] (isolate K9032, 3rd listed row); 0.17 in test [7] (setting [9]); −0.06 in test [8] (setting [9]). For the same molecule, the “EC50 (ppm)” value in test [1] came out at 0.01 ppm; in test [2] (isolate K9029, 1st listed row), 0.3 ppm; in test [2] (isolate K9029, 2nd listed row), 0.8 ppm; in test [2] (isolate K9029, 3rd listed row), 3 ppm; in test [3] (isolate K9026, 1st listed row) it was 4 ppm; in test [3] (isolate K9026, 2nd listed row) it was 0.05 ppm. Also, the “EC50 (ppm)” value in test [3] (isolate K9026, 3rd listed row) stood at 0.05 ppm; in test [4] (isolate K9023, 2nd listed row), 0.1 ppm; in test [4] (isolate K9023, 3rd listed row) it was 0.2 ppm; in test [4] (isolate K9023), 0.3 ppm; in test [5] it was 0.3 ppm; in test [6] (isolate K9032, 1st listed row), 0.1 ppm. Also, the “EC50 (ppm)” value was 0.06 ppm in test [6] (isolate K9032, 2nd listed row); 0.06 ppm in test [6] (isolate K9032, 3rd listed row); 0.02 ppm in test [7]; 0.04 ppm in test [8]. Besides, the “effectiveness compared with the racemate (in words)” value is listed as “more effective” in test [1] (summary of Tables A and B); “more effective” in test [2] (isolate K9029, summary of Tables A and B); “more effective” in test [3] (isolate K9026, summary of Tables A and B).
